Assay results taken from paper PMC7617978, “Anti-trypanosomal quinazolines targeting lysyl-tRNA synthetases show partial efficacy in a mouse model of acute Chagas disease” (Science translational medicine, 2025).
Where “and” joins values, the source holds several entries; their conditions need not be identical. Equal values may be shown once. Read-outs that look alike come from different tables or passages of the source.

What was measured:
[1] = system: T. cruzi (Sylvio X10/7A1 strain) epimastigote; assay: microbe, parasite or virus in culture; assay type: cell-based; details: epimastigote; for EC50: read-out: EC50
[2] = system: T. b. brucei BSF; assay: Drug sensitivity assay, T. b. brucei bloodstream forms; assay type: cell-based; details: BSF; for EC50: read-out: EC50
[3] = system: L. donovani (LdBOB) promastigote; assay: Drug sensitivity assay, L. donovani promastigotes; assay type: cell-based; details: promastigote; for EC50: read-out: EC50
[4] = molecular target: Trypanosoma cruzi lysyl-tRNA synthetase 1 (TcKRS1), recombinant, residues 54-580 (Trypanosoma cruzi); assay: SEC; size exclusion chromatography as the last step of purification of recombinant TcKRS1 (tag cleaved); running buffer not stated
[5] = system: T. cruzi CL Brener strain; assay: Bioluminescent mouse model of acute T. cruzi infection; assay type: in vivo, BALB/c mice; details: 100 mg/kg QD oral, 5 days, in words
Experimental: Female BALB/c mice (aged 6-7 weeks), purchased from Charles River (UK), were maintained under specific pathogen-free conditions in individually ventilated cages, with a 12 h light/dark cycle. They had access to food and water ad libitum. Mice were infected by intraperitoneal injection (i.p) of 1x10^3 bloodstream trypomastigotes derived from CB17 SCID mouse blood.
Compounds were prepared in 5% (v/v) dimethyl sulfoxide /95% HPMC suspension vehicle (0.5% (w/v) hydroxypropyl methylcellulose, 0.5% (v/v) benzyl alcohol, 0.4% (v/v) Tween 80 in Milli-Q water). Mice were treated as outlined in Fig. 5, with compounds administered by oral gavage. At different days after infection, mice were injected with d-luciferin (150 mg/kg) i.p., anaesthetized using 2.5% (v/v) gaseous isoflurane and imaged using an IVIS Spectrum (Revvity, Hopkinton, MA, USA) 5-10 min later. To estimate parasite burden, mice ventral and dorsal regions of interest were drawn using Living Image 4.7.3 to quantify bioluminescence expressed as total flux (photons/second; p/s). Regions of interest data from infected and not-infected mice were used as controls. Exposure times varied between 30 sec and 5 min, depending on the signal intensity.

With `O=C(NCC1(O)CCC(F)(F)CC1)c1cc(=O)c2cc(F)ccc2o1` [DDD01510706, reference compound] the “Fold-shift (relative to WT)” value ([1]; KRS1 OE) was 9 fold, the EC50 ([1]; KRS1 OE) was 13 ± 0.4 µM and the “Fold-shift (relative to WT)” value ([1]; KRS1 S319L) was 25 fold. For the same molecule, the EC50 ([1]; KRS1 S319L) was 36 ± 4 µM, the EC50 ([1]; WT) was 1.4 ± 0.04 µM and the “Fold-shift (relative to WT)” value ([2]; KRS1 OE) was 5 fold and ~ 5 fold. The EC50 ([2]; KRS1 OE) was 3 ± 0.1 µM, the EC50 ([2]; KRS1 S323L) was 33 ± 1 µM and the “Fold-shift (relative to WT)” value ([2]; KRS1 serine-to-leucine mutant (S323L; printed S319L in Table S1)) was 53 fold. For the same molecule, the EC50 ([2]; WT) was 0.6 ± 0.01 µM, the “Fold-shift (relative to WT)” value ([3]; KRS1 OE) was 11 fold and the EC50 ([3]; KRS1 OE) was 8 ± 0.5 µM. For the same molecule, the “Fold-shift (relative to WT)” value ([3]; KRS1 S324L) was 12 fold and the EC50 ([3]; WT) was 0.7 ± 0.01 µM.
For “Trypanosoma cruzi lysyl-tRNA synthetase 1 (TcKRS1), recombinant, residues 54-580 (enzyme)”, the stoichiometry N [4] was 2.
For `O=C(Cn1ccnc1[N+](=O)[O-])NCc1ccccc1` [benznidazole, reference compound], the “parasite burden after treatment” value [5] was “reduced close to the limit of detection”.
